Results published in ChEMBL document CHEMBL1201862, “PubChem BioAssay data set” (2004).
Values belong to the compound of their own block, whether it stands above or below them. Calls of active or inactive are those of the source.

Assays:
[1] = test system: Streptococcus sp. 'group A'; assay: growth inhibition of control SK(-) GAS strain, dose response, counter-screen for streptokinase expression inhibitor project, luminescence, kanamycin, BacTiterGlo, confirmation (AID 1900); assay type: functional, organism-based
[2] = C. albicans growth with fluconazole, confirmation, fluorescence, retest (AID 2467); assay type: functional, cell-based
Streptococcus = assay: Group A Streptococcus viability loss, dose response, counter-screen for streptokinase expression inhibitor project, luminescence, BacTiterGlo (AID 1915); assay type: functional, organism-based;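 note: potency for reduction of bacterial viability or growth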
[3] = target: Dual specificity tyrosine-phosphorylation-regulated kinase 1A (Rattus norvegicus, UniProt Q63470); assay type: biochemical, Homo sapiens
[4] = target: T1, Histone-lysine N-methyltransferase NSD2 (Homo sapiens, UniProt O96028); assay type: biochemical
T1 sequence (O96028 whole entry): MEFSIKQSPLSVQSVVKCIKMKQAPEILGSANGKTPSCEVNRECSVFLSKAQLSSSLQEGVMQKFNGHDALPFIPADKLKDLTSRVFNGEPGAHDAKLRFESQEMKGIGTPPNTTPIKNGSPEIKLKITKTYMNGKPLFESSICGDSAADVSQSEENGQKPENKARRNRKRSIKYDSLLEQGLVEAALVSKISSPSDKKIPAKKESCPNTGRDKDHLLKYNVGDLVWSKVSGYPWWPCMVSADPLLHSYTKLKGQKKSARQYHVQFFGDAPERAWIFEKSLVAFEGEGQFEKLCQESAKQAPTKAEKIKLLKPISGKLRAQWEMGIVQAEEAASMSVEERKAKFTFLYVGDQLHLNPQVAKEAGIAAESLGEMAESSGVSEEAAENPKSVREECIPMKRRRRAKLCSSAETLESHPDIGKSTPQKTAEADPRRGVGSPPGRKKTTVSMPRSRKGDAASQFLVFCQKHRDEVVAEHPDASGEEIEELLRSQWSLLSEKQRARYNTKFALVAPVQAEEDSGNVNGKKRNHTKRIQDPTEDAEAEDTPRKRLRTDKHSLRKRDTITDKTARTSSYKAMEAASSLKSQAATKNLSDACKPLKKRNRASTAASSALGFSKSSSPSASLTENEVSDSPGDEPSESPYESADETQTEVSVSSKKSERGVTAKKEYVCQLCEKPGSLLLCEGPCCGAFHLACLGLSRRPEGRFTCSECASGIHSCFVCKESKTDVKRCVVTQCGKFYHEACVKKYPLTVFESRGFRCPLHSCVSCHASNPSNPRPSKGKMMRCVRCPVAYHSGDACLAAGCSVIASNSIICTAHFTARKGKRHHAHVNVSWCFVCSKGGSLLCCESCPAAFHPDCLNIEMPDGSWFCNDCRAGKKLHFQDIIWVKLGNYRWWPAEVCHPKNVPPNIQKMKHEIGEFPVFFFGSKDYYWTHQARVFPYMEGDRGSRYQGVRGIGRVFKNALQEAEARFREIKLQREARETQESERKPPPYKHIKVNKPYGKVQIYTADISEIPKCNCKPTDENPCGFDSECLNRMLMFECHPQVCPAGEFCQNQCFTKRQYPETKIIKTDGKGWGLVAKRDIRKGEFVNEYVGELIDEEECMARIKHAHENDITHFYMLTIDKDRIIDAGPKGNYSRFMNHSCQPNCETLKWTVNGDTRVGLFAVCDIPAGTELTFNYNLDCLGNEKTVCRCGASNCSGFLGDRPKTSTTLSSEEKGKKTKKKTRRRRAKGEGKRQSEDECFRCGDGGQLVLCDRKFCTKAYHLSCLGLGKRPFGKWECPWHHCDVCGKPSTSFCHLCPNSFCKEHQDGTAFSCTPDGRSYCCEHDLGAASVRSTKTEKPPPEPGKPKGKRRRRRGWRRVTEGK

[5] = target: T2, Tyrosyl-DNA phosphodiesterase 2 (Homo sapiens, UniProt O95551); assay: human TDP2 enzyme inhibitors, dose response, biochemical, epi absorbance, IC50 (AID 743297)
T2 sequence (O95551 whole entry): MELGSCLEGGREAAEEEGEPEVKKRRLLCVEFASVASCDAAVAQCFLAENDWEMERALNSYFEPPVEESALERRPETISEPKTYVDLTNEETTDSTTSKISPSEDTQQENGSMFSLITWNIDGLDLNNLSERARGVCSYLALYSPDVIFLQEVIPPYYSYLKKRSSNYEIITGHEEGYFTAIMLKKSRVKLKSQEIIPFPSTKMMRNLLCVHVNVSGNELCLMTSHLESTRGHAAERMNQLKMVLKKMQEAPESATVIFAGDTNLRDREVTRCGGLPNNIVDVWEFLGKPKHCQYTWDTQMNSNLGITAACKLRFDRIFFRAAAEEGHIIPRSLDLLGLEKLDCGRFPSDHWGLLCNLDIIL

[6] = target: Protein kinase C delta type (Homo sapiens, UniProt Q05655); assay type: functional
Chain of Protein kinase C delta type (Q05655 whole entry): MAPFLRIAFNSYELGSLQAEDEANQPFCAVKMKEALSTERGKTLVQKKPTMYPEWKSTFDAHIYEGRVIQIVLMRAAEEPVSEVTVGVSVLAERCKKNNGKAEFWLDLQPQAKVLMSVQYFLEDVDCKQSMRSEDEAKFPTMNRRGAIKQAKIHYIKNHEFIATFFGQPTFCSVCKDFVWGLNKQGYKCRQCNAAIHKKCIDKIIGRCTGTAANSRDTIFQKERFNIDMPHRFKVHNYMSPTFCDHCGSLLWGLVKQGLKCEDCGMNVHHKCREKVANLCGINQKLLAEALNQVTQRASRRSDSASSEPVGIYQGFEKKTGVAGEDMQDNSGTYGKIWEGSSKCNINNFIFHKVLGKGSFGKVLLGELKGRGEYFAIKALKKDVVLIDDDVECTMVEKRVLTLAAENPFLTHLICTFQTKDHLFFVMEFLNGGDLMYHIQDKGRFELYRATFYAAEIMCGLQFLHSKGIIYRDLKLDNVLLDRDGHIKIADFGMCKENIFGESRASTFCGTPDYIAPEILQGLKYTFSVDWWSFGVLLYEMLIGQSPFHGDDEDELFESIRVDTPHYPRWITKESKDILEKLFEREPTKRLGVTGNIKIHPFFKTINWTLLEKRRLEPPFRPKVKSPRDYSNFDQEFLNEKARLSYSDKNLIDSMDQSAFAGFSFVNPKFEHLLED

[7] = target: Cyclin-dependent kinase 2 (Homo sapiens, UniProt P24941); assay type: functional;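 note: CDK2 measured as one member of a broad kinome profiling panel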
[8] = target: Homeodomain-interacting protein kinase 2 (Homo sapiens, UniProt Q9H2X6); assay type: functional;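 note: measured within a kinome-wide kinase profiling panel, HIPK2 being one panel member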
[9] = target: MAP/microtubule affinity-regulating kinase 3 (Homo sapiens, UniProt P27448); assay type: functional;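 note: MARK3 affinity measured as one member of a kinome panel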
Chain of MAP/microtubule affinity-regulating kinase 3 (P27448 whole entry): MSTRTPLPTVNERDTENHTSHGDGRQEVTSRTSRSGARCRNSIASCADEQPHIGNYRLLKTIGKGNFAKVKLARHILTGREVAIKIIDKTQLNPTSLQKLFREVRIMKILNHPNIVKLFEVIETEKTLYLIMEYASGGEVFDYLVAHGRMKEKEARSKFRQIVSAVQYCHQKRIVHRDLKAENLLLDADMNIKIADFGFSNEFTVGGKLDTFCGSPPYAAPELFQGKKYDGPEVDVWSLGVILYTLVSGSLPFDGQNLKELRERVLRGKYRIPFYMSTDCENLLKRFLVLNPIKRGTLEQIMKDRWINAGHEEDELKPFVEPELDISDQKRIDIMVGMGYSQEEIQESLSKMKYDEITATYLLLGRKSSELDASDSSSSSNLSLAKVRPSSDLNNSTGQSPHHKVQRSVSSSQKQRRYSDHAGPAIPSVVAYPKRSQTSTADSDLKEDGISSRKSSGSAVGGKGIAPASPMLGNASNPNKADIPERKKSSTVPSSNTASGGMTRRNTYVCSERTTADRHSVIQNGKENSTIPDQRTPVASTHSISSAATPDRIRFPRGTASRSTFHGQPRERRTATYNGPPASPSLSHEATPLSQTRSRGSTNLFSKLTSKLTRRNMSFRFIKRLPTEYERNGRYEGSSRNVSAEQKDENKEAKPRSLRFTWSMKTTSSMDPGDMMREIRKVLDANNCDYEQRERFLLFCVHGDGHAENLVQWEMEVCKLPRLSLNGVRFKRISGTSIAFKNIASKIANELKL

[10] = target: Mitogen-activated protein kinase 13 (Homo sapiens, UniProt O15264); assay type: functional
Chain of Mitogen-activated protein kinase 13 (O15264 whole entry): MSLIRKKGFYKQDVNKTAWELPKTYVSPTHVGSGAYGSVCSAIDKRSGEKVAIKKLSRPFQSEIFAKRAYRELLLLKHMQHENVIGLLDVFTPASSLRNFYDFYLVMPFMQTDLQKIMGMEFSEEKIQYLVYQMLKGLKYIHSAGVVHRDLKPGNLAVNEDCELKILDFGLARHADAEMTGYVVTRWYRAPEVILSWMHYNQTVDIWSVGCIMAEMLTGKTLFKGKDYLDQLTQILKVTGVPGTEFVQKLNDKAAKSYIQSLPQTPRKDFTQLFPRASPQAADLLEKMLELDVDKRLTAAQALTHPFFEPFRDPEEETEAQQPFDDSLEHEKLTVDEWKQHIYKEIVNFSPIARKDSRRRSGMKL

[11] = target: MAP kinase-interacting serine/threonine-protein kinase 2 (Homo sapiens, UniProt Q9HBH9); assay type: functional
[12] = target: Vascular endothelial growth factor receptor 2 (Homo sapiens, UniProt P35968); assay type: functional
Chain of Vascular endothelial growth factor receptor 2 (P35968 whole entry): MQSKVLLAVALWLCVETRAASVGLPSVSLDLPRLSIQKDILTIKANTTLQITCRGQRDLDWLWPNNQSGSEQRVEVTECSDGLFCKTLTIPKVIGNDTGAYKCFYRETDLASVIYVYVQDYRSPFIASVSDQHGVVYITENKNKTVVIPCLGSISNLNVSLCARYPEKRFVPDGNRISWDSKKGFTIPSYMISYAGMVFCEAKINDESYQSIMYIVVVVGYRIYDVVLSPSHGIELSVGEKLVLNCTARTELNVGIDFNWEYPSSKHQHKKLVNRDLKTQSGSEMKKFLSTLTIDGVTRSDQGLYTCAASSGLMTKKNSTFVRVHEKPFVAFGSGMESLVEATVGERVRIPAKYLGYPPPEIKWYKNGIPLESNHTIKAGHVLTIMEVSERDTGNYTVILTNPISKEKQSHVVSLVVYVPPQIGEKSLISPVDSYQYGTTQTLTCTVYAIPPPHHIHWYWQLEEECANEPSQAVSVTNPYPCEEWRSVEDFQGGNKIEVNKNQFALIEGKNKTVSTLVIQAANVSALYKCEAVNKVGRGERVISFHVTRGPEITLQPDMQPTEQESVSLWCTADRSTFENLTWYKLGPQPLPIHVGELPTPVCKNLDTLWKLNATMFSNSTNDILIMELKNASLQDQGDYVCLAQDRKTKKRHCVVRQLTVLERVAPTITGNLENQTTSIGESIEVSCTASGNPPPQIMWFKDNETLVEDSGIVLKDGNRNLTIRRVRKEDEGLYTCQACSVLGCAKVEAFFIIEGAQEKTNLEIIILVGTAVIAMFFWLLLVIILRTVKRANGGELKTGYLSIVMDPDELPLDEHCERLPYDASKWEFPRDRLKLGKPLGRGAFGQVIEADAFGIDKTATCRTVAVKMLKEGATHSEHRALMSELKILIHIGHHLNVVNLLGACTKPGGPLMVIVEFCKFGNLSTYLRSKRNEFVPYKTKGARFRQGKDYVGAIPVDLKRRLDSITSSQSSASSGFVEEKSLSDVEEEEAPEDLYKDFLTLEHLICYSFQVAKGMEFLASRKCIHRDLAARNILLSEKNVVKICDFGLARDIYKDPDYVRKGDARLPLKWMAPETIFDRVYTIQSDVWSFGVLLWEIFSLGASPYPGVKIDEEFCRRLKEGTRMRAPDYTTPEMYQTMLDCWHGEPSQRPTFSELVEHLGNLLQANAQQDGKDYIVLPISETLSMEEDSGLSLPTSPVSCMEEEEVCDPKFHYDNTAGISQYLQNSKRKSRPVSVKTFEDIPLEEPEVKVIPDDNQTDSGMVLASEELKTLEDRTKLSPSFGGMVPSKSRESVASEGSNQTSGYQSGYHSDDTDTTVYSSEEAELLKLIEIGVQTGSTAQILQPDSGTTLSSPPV

[13] = target: Serine/threonine-protein kinase Nek4 (Homo sapiens, UniProt P51957); assay type: functional
Chain of Serine/threonine-protein kinase Nek4 (P51957 whole entry): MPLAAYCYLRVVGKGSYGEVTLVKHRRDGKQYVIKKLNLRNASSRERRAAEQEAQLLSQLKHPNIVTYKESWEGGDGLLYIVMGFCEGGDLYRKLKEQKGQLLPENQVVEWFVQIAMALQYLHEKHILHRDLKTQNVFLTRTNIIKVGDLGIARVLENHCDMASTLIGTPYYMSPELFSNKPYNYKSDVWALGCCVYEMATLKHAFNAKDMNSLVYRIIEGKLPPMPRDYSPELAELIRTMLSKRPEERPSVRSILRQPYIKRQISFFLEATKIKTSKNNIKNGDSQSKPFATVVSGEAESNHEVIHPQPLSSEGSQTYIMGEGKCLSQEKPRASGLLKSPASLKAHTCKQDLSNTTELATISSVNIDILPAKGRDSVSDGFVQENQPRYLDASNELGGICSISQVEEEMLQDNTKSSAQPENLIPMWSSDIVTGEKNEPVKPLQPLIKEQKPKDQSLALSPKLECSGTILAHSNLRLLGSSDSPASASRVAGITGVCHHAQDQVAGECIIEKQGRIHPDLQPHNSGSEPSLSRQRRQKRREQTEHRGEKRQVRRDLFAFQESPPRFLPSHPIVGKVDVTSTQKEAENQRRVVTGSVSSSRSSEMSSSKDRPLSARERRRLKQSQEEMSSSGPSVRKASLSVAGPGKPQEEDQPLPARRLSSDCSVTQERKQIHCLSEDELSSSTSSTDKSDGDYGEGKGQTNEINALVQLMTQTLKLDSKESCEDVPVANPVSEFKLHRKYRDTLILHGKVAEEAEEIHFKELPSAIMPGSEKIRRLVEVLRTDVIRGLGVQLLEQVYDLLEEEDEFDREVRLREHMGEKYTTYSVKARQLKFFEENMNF

[14] = target: Protein-tyrosine kinase 6 (Homo sapiens, UniProt Q13882); assay type: functional
Chain of Protein-tyrosine kinase 6 (Q13882 whole entry): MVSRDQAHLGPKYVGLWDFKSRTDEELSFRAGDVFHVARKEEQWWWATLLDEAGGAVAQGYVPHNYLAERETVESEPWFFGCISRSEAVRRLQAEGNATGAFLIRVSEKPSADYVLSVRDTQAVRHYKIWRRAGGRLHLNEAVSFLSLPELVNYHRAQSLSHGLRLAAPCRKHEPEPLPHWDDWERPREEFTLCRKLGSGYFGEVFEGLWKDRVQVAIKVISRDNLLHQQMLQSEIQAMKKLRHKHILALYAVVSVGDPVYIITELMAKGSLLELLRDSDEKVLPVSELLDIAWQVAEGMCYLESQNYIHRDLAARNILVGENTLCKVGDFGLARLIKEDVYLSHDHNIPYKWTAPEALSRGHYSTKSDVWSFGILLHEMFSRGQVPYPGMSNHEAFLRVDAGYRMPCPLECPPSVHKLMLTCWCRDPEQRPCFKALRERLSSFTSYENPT

[15] = target: RAC-alpha serine/threonine-protein kinase (Homo sapiens, UniProt P31749); assay type: functional;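 note: AKT1 affinity measured as one member of a kinome-wide kinase profiling panel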
[16] = target: Serine/threonine-protein kinase Nek2 (Homo sapiens, UniProt P51955); assay type: functional
[17] = target: Receptor tyrosine-protein kinase erbB-4 (Homo sapiens, UniProt Q15303); assay type: functional;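 note: ERBB4 member of a kinome-wide kinase profiling panel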
[18] = target: Heat shock protein HSP 90-alpha (Homo sapiens, UniProt P07900); assay type: functional, organism-based
Caspase-9 = Caspase-9 (Homo sapiens, UniProt P55211); assay: caspase-9 enzyme inhibition, dose response, selectivity assay for caspase-6 inhibitor project, biochemical, fluorescence, plate reader, cherry-picked samples (AID 743293)
Chain of Caspase-9 (P55211 1-315 limits assumed): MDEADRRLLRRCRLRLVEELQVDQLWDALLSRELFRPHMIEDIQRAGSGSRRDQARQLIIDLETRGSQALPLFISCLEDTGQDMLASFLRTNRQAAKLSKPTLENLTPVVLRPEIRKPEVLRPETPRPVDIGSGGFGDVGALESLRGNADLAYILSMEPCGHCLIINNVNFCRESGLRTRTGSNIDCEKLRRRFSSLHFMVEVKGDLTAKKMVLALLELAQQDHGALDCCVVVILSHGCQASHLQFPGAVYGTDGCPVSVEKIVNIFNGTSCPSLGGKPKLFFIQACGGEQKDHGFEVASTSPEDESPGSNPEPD
Chain of Caspase-9 (P55211 331-416 limits assumed): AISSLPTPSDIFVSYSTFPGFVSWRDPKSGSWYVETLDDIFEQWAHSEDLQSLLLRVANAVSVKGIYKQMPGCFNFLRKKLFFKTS

SUMO-activating enzyme = SUMO-activating enzyme (Homo sapiens, UniProt Q9UBT2); assay: SUMOylation inhibitor hit validation, confirmation, SUMOylation inhibitor project, biochemical, AlphaScreen (AID 2018); assay type: functional

Structure (SMILES): CC[C@@H](C)[C@H](CNC)NC[C@@H](Cc1cccc2ccccc12)NCCc1cccc(C(F)(F)F)c1
EC50 [1]: 4.8 µM (active) | EC50 [2]: > 38 µM (not active) | EC50 (Streptococcus): 7.12 µM (active) | AC50 [3]: 79 µM (active)

Structure (SMILES): Cc1ccc(S(=O)(=O)/N=C2\C=C(Nc3cccc(C(=O)O)c3)C(=O)c3ccccc32)cc1
EC50 [1]: 4.62 µM (active) | EC50 (Streptococcus): 14.3 µM (active) | AC50 [3]: 2.57 µM (active) | AC50 [4]: 0.422 µM (active) | IC50 [5]: 3.18 µM (active)

Ki [6]: > 7.94 µM (inactive) | Ki [7]: > 7.94 µM (inactive) | Ki [8]: > 3.16 µM (inactive) | Ki [9]: > 6.31 µM (inactive) | Ki [10]: > 7.94 µM (inactive) | Ki [11]: > 10 µM (inactive) | Ki [12]: > 7.94 µM (inactive) | Ki [13]: > 6.31 µM (inactive) | Ki [14]: > 2.51 µM (inactive) | Ki [15]: > 7.94 µM (inactive) | Ki [16]: > 10 µM (inactive) | Ki [17]: > 3.98 µM (inactive)
Structure (SMILES): CC(C)(CO)CNc1nccc(-c2c(-c3ccc(F)cc3)nc3c(CC4CC4)nccn23)n1

Structure (SMILES): O=[N+]([O-])c1c(Nc2ccccn2)cc(Cl)c2nonc12
AC50 [18]: 1.93 µM (active) | AC50 (Caspase-9): 17.4 µM (active) | IC50 [5]: 99.4 µM (inactive)

Structure (SMILES): Cc1ccc(C(=O)NC2(O)C(=O)c3ccccc3C2=O)cc1C
IC50 (SUMO-activating enzyme): 0.87 µM (active) | AC50 [4]: 6.83 µM (active) | IC50 [5]: 5.74 µM (active)
